Measured values as given in patent US9040518B2, “Chemical compounds” (GlaxoSmithKline LLC, priority 2010, dated 2015).
Where a name gives a salt, the structure may show the parent alone.

Target: ileal bile acid cotransporter (iBAT) (Homo sapiens (Human), UniProt Q12908)
Test: Human iBAT inhibition: [3H]-taurocholate uptake into HEK293 cells expressing human iBAT
Format: cell-based
Settings: HEK293 cells transduced with human iBAT Bacmam virus, 90 minutes at ambient temperature, mean of at least 2 datapoints
Method: Method for Determination of Human iBAT Inhibition:
In preparation for measurement of bile acid uptake into cells expressing the ileal bile acid cotransporter (iBAT), HEK293 cells were cultured in DMEM/F12 supplemented with 10% FBS. Twenty four hours prior to running an experiment, cells were harvested when at a confluence of 80-90%. Cells were seeded in poly-d-lysine coated plates at 50,000 cells per well, and human iBAT Bacmam virus was added such that each well contains 3.67×10e6 pfu (73.4pfu/cell). Each assay plate was covered with Breathe Easy Seal and placed in an incubator for 24 hours to allow expression of the transporter.
On the day of the uptake experiment, 10 mM HEPES was added to Hank's Balanced Salt Solution, and the pH was adjusted to 7.4 with TRIS (HBSSH). The assay buffer was prepared by adding […] [^3H]-taurocholate and 10 μM cold taurocholate to room temperature HBSSH. A separate washing buffer was prepared by adding 10 μM cold taurocholate to HBSSH (˜30 ml per assay plate) and placed on ice. Using 100% DMSO, 8 point, 3-fold dilution curves for each test compound was prepared starting at 200 μM. Similarly, an 8 point dose response curve was prepared of the control compound [(3R,5R)-3-butyl-3-ethyl-7,8-bis(methyloxy)-5-phenyl-2,3,4,5-tetrahydro-1,4-benzothiazepine 1,1-dioxide (Brieaddy, L. E. WO9605188, 1996)] starting at 1.8 mM. Drug plates were created by adding 3 μL of each concentration to a v-bottom 96-well plate then diluted 60-fold with 177 μL of assay buffer. Plates were removed from the incubator and allowed to cool to ambient temperature. Media was aspirated, and wells were washed once with 300 μL HBSSH. 50 μL of each dose response curve concentration was added in triplicate by column to the assay plates, reserving column 10 for control (assay buffer+1.67% DMSO) and columns 11 and 12 for the control compound. Plates were incubated at ambient temperature for 90 minutes then the plates were aspirated then washed 1× with 300 μL of wash buffer. 220 μL of Microscint 20 was added to each well, and the plates were sealed. The amount of [^3H]-taurocholate in cell lysate was quantitated using a microplate scintillation counter on the following day.
IC50's can be generated using the formula, y=(Vmax*x^n)/(K^n+x^n).

Sequence of ileal bile acid cotransporter (iBAT) (Q12908 whole entry): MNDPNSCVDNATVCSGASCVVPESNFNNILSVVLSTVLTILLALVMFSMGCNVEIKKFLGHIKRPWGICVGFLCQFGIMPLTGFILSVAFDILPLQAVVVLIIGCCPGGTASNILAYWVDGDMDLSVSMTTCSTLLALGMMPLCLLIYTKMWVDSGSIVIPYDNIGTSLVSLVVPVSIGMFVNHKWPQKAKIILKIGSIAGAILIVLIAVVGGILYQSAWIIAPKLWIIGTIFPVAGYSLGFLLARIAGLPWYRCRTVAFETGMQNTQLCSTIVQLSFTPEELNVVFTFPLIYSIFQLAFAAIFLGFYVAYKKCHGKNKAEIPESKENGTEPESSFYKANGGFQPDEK

SMILES: CCCC[C@]1(CC)CS(=O)(=O)c2cc(CCCS(=O)(=O)O)c(OC)cc2[C@@H](c2ccccc2)N1 [Example 20, 3-[(3R,5R)-3-butyl-3-ethyl-7-(methyloxy)-1,1-dioxido-5-phenyl-2,3,4,5-tetrahydro-1,4-benzothiazepin-8-yl]-1-propanesulfonic acid]
- IC50: 4 nM

SMILES: CCCC[C@]1(CC)CS(=O)(=O)c2cc(CN(CP(=O)(O)O)CP(=O)(O)O)c(OC)cc2[C@@H](c2ccccc2)N1 [Example 60, [({[(3R,5R)-3-butyl-3-ethyl-7-(methyloxy)-1,1-dioxido-5-phenyl-2,3,4,5-tetrahydro-1,4-benzothiazepin-8-yl]methyl}imino)dimethanediyl]bis(phosphonic acid) tetraammonium salt]
- IC50: 3330 nM

SMILES: CCCC[C@]1(CC)CS(=O)(=O)c2cc(CCC(=O)NC(CC(=O)O)CC(=O)O)c(OC)cc2[C@@H](c2ccccc2)N1 [Example 17, 3-({3-[(3R,5R)-3-butyl-3-ethyl-7-(methyloxy)-1,1-dioxido-5-phenyl-2,3,4,5-tetrahydro-1,4-benzothiazepin-8-yl]propanoyl}amino)pentanedioic acid trifluoroacetate salt]
- IC50: 3330 nM

SMILES: CCCC[C@]1(CC)CS(=O)(=O)c2cc(CNCCCC(=O)O)c(OC)cc2[C@@H](c2ccccc2)N1 [Example 30, 4-({[(3R,5R)-3-butyl-3-ethyl-7-(methyloxy)-1,1-dioxido-5-phenyl-2,3,4,5-tetrahydro-1,4-benzothiazepin-8-yl]methyl}amino)butanoic acid trifluoroacetate salt]
- IC50: 1290 nM

SMILES: CCCC[C@]1(CC)CS(=O)(=O)c2cc(CCC(=O)O)c(OC)cc2[C@@H](c2ccccc2)N1 [Example 10, 3-[(3R,5R)-3-butyl-3-ethyl-7-(methyloxy)-1,1-dioxido-5-phenyl-2,3,4,5-tetrahydro-1,4-benzothiazepin-8-yl]propanoic acid]
- IC50: 17 nM

SMILES: CCCCC1(CCCC)CS(=O)(=O)c2cc(CNC(CC(=O)O)CC(=O)O)c(OC)cc2C(c2ccccc2)N1 (stereo not shown) [Example 65, 3-({[3,3-dibutyl-7-(methyloxy)-1,1-dioxido-5-phenyl-2,3,4,5-tetrahydro-1,4-benzothiazepin-8-yl]methyl}amino)pentanedioic acid trifluoroacetate salt]
- IC50: 337 nM

SMILES: CCCC[C@]1(CC)CS(=O)(=O)c2cc(CP(=O)(O)O)c(OC)cc2[C@@H](c2ccccc2)N1O [Example 54, {[(3R,5R)-3-butyl-3-ethyl-4-hydroxy-7-(methyloxy)-1,1-dioxido-5-phenyl-2,3,4,5-tetrahydro-1,4-benzothiazepin-8-yl]methyl}phosphonic acid]
- IC50: 124 nM

SMILES: CCCC[C@]1(CC)CS(=O)(=O)c2cc(CNCCS(=O)(=O)O)c(OC)cc2[C@@H](c2ccccc2)N1 [Example 35, 2-({[(3R,5R)-3-butyl-3-ethyl-7-(methyloxy)-1,1-dioxido-5-phenyl-2,3,4,5-tetrahydro-1,4-benzothiazepin-8-yl]methyl}amino)ethanesulfonic acid ammonium salt]
- IC50: 54 nM

SMILES: CCCC[C@]1(CC)CS(=O)(=O)c2cc(CN(CCS(=O)(=O)O)CCS(=O)(=O)O)c(OC)cc2[C@@H](c2ccccc2)N1 [Example 36, 2,2′-({[(3R,5R)-3-butyl-3-ethyl-7-(methyloxy)-1,1-dioxido-5-phenyl-2,3,4,5-tetrahydro-1,4-benzothiazepin-8-yl]methyl}imino)diethanesulfonic acid trifluoroacetate salt]
- IC50: 365 nM

SMILES: CCCC[C@]1(CC)CS(=O)(=O)c2cc(CN[C@@H](CCCCN)C(=O)O)c(OC)cc2[C@@H](c2ccccc2)N1 [Example 58, N^2-{[(3R,5R)-3-butyl-3-ethyl-7-(methyloxy)-1,1-dioxido-5-phenyl-2,3,4,5-tetrahydro-1,4-benzothiazepin-8-yl]methyl}-L-lysine ammonium salt]
- IC50: 1460 nM

SMILES: CCCC[C@]1(CC)CS(=O)(=O)c2cc(CP(=O)(O)O)c(OC)cc2[C@H](c2ccccc2)N1 [Example 45, {[(3R,5S)-3-butyl-3-ethyl-7-(methyloxy)-1,1-dioxido-5-phenyl-2,3,4,5-tetrahydro-1,4-benzothiazepin-8-yl]methyl}phosphonic acid trifluoroacetate salt]
- IC50: 1950 nM

SMILES: CCCC[C@]1(CC)CS(=O)(=O)c2cc(CNC(=O)C(=O)O)c(OC)cc2[C@@H](c2ccccc2)N1 [Example 64, ({[(3R,5R)-3-butyl-3-ethyl-7-(methyloxy)-1,1-dioxido-5-phenyl-2,3,4,5-tetrahydro-1,4-benzothiazepin-8-yl]methyl}amino)(oxo)acetic acid]
- IC50: 6 nM

SMILES: CCCC[C@]1(CC)CS(=O)(=O)c2cc(CNC(CC(=O)O)CC(=O)O)c(N(C)C)cc2[C@@H](c2ccccc2)N1 [Example 69, 3-({[(3R,5R)-3-butyl-7-(dimethylamino)-3-ethyl-1,1-dioxido-5-phenyl-2,3,4,5-tetrahydro-1,4-benzothiazepin-8-yl]methyl}amino)pentanedioic acid bis-ammonium salt]
- IC50: 19 nM

SMILES: CCCC[C@]1(CC)CS(=O)(=O)c2cc(CNCP(=O)(O)O)c(OC)cc2[C@@H](c2ccccc2)N1 [Example 62, [({[(3R,5R)-3-butyl-3-ethyl-7-(methyloxy)-1,1-dioxido-5-phenyl-2,3,4,5-tetrahydro-1,4-benzothiazepin-8-yl]methyl}amino)methyl]phosphonic acid trifluoroacetate salt]
- IC50: 3900 nM

SMILES: CCCC[C@]1(CC)CS(=O)(=O)c2cc(C(N)=O)c(OC)cc2[C@@H](c2ccccc2)N1 [Example 8, (3R,5R)-3-butyl-3-ethyl-7-(methyloxy)-5-phenyl-2,3,4,5-tetrahydro-1,4-benzothiazepine-8-carboxamide-1,1-dioxide]
- IC50: 73 nM

SMILES: CCCC[C@]1(CC)CS(=O)(=O)c2cc(CN3CCCC3=O)c(OC)cc2[C@@H](c2ccccc2)N1 [Example 31, 1-{[(3R,5R)-3-butyl-3-ethyl-7-(methyloxy)-1,1-dioxido-5-phenyl-2,3,4,5-tetrahydro-1,4-benzothiazepin-8-yl]methyl}-2-pyrrolidinone trifluoroacetate salt]
- IC50: 407 nM

SMILES: CCCC[C@]1(CC)CS(=O)(=O)c2cc(CN3CCC[C@@H]3C(=O)O)c(OC)cc2[C@@H](c2ccccc2)N1 [Example 57, 1-{[(3R,5R)-3-butyl-3-ethyl-7-(methyloxy)-1,1-dioxido-5-phenyl-2,3,4,5-tetrahydro-1,4-benzothiazepin-8-yl]methyl}-D-proline ammonium salt]
- IC50: 751 nM

SMILES: CCCC[C@]1(CC)CS(=O)(=O)c2cc(CNC(=O)CS(=O)(=O)O)c(OC)cc2[C@@H](c2ccccc2)N1 [Example 37, 2-({[(3R,5R)-3-butyl-3-ethyl-7-(methyloxy)-1,1-dioxido-5-phenyl-2,3,4,5-tetrahydro-1,4-benzothiazepin-8-yl]methyl}amino)-2-oxoethanesulfonic acid]
- IC50: 9 nM

SMILES: CCCC[C@]1(CC)CS(=O)(=O)c2cc(CCCP(=O)(O)O)c(OC)cc2[C@@H](c2ccccc2)N1 [Example 21, {3-[(3R,5R)-3-butyl-3-ethyl-7-(methyloxy)-1,1-dioxido-5-phenyl-2,3,4,5-tetrahydro-1,4-benzothiazepin-8-yl]propyl}phosphonic acid trifluoroacetate salt]
- IC50: 51 nM
